Laboratory results reported in patent publication US20070149535A1, “Protein kinase inhibitors” (ONCALIS AG, priority 2004, published 2007).

Legend:
Assay in all cases: Yeast growth assay, specificity profiling;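 as to EGFR (L858R) growth restoration: Parenthesized + marks a result obtained in a different yeast background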
Assay type in all cases: cell-based
EGFR (L858R) [1] = target: T1, EGFR (L858R) (Homo sapiens, UniProt P00533, L858R); set-up: key: (+) in a different yeast background; conditions: in a different yeast background;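 also: Parenthesized + marks a result obtained in a different yeast background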
T1 construct: expressed in transfected cells; host or cells: yeast
Protocol: Specificity Profiling: Yeast Growth Assay
The yeast growth assay was performed as described in “Method for the identification and/or validation of receptor tyrosine kinase inhibitors” PCT/CH03/00694 (2004/10/24), section “Modes for Carrying out the Invention, Experiment 1 and Experiment 2.
Briefly, yeast cells carrying plasmids with the RTK of interest were grown in glucose containing medium (repressing expression). The cultures were diluted into galactose containing medium, which induces the expression of the kinase. Expression of the kinase inhibits growth of the yeast cells, which allows for positive selection of kinase inhibitors restoring growth of cells. Compounds were titrated at 7 concentrations between 0.2 and 100 μM.
Specificity profiling of compounds, using the yeast growth assay method described above. “−” indicates no growth restoration i.e. no activity against the particular kinase, “+”, “++”, and “+++” indicate activity detected by restoration of growth, classified into three categories of potency according to the maximal level of growth restoration reached and the concentration at which the maximal growth restoration is reached.

FLT3 = target: T2, FLT3 (Homo sapiens, UniProt P36888); set-up: key: “−” indicates no growth restoration i.e. no activity against the particular kinase; “+”, “++”, and “+++” indicate activity detected by restoration of growth, classified into three categories of potency; “+”, “++”, and “+++” indicate activity detected by restoration of growth, classified into three categories of potency; “+”, “++”, and “+++” indicate activity detected by restoration of growth, classified into three categories of potency; conditions: 7 concentrations between 0.2 and 100 μM
T2 construct: expressed in transfected cells; host or cells: yeast
T2 sequence (P36888 27-993): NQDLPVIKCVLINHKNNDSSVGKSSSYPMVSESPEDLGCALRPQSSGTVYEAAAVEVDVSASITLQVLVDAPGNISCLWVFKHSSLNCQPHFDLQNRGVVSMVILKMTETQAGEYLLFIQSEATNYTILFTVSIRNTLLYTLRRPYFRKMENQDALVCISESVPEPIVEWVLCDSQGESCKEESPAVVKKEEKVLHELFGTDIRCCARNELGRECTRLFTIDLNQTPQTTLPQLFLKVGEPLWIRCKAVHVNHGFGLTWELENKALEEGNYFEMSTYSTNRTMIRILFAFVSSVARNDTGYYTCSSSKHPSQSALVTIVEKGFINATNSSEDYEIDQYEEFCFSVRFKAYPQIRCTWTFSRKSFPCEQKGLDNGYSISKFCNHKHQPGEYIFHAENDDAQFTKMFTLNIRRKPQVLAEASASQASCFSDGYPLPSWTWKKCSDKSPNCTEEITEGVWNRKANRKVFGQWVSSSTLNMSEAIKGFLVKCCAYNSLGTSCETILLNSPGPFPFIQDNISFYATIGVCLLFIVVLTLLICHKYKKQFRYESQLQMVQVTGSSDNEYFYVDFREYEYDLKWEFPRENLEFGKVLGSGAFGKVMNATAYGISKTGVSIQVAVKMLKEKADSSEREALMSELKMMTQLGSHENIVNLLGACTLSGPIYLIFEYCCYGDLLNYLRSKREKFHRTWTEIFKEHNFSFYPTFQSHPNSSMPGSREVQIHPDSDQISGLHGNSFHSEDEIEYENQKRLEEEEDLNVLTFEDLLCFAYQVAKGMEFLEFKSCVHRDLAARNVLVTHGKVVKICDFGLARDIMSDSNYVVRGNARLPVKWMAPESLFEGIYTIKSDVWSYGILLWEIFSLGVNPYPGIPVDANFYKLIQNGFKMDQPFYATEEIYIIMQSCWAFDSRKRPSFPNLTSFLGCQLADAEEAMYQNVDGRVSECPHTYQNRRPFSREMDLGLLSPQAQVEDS
Outline: (§1)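 Yeast carrying the human RTK are shifted from glucose to galactose medium, inducing kinase expression that suppresses growth; inhibitors restore growth. Compounds are tested at 7 concentrations from 0.2 to 100 μM. Activity is scored −/+/++/+++ from the maximal growth restoration and the concentration at which it is reached.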

ErbB2 = target: T3, ErbB2 (Homo sapiens, UniProt P04626); set-up: key: “−” indicates no growth restoration i.e. no activity against the particular kinase; “+”, “++”, and “+++” indicate activity detected by restoration of growth, classified into three categories of potency; “+”, “++”, and “+++” indicate activity detected by restoration of growth, classified into three categories of potency; “+”, “++”, and “+++” indicate activity detected by restoration of growth, classified into three categories of potency; conditions: 7 concentrations between 0.2 and 100 μM
T3 construct: expressed in transfected cells; host or cells: yeast
Outline: as §1

EGFR (L858R) [2] = target: T1, EGFR (L858R); set-up: key: “−” indicates no growth restoration i.e. no activity against the particular kinase; “+”, “++”, and “+++” indicate activity detected by restoration of growth, classified into three categories of potency; “+”, “++”, and “+++” indicate activity detected by restoration of growth, classified into three categories of potency; “+”, “++”, and “+++” indicate activity detected by restoration of growth, classified into three categories of potency; conditions: 7 concentrations between 0.2 and 100 μM
Outline: as §1

T3 sequence (P04626 23-1255): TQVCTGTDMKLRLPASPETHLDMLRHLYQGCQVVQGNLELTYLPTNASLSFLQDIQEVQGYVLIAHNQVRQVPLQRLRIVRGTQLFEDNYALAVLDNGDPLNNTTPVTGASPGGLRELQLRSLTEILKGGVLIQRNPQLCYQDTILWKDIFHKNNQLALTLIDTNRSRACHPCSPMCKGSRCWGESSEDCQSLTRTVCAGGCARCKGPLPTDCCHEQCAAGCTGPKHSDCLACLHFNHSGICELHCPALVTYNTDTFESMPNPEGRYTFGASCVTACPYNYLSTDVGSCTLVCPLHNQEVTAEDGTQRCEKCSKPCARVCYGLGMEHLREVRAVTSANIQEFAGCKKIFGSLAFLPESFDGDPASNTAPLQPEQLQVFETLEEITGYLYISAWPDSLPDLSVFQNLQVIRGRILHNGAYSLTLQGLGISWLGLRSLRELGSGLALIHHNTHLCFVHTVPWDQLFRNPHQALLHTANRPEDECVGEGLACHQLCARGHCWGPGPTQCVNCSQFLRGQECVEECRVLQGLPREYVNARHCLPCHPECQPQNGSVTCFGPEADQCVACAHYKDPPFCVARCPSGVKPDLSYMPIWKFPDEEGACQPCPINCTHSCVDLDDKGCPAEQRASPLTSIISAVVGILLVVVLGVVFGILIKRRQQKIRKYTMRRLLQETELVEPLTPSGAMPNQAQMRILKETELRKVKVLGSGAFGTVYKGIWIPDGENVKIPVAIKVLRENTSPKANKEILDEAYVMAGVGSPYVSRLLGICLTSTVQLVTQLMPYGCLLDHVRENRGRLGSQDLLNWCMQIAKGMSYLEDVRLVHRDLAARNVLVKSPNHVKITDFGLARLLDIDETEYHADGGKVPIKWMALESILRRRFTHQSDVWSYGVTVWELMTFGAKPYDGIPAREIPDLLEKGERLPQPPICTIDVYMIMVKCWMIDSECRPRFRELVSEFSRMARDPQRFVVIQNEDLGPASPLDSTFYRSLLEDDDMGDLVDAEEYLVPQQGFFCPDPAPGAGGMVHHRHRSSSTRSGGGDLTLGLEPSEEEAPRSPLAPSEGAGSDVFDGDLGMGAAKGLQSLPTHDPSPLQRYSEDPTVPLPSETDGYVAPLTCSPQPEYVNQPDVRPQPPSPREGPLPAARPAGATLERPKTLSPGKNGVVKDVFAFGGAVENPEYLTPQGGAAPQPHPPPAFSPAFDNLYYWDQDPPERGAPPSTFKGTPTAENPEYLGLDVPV

EGFR (L858R) growth restoration (EGFR (L858R) [1]) | FLT3 growth restoration (FLT3) | ErbB2 growth restoration (ErbB2) | EGFR (L858R) growth restoration (EGFR (L858R) [2]) | Structure (SMILES)
(+) |  |  |  | c1ccc(Nc2c(-c3ccc(N4CCOCC4)cc3)nc3cnccn23)cc1 [compound 38, [2-(4-Morpholin-4-yl-phenyl)-imidazo[1,2-a]pyrazin-3-yl]-phenyl-amine]
 | − | − | − | Brc1cccc(Nc2c(-c3ccccc3)nc3cnccn23)c1 [compound 14, (3-Bromo-phenyl)-(2-phenyl-imidazo[1,2-a]pyrazin-3-yl)-amine]
 | − | − | + | Cc1nccn2c(Nc3ccccc3)c(-c3ccccc3)nc12 [compound 39, (8-Methyl-2-phenyl-imidazo[1,2-a]pyrazin-3-yl)-phenyl-amine]
(+) |  |  |  | CC(=O)Nc1ccc(-c2nc3cnccn3c2Nc2cccc(Cl)c2)cc1 [compound 8, N-{4-[3-(3-Chloro-phenylamino)-imidazo[1,2-a]pyrazin-2-yl]-phenyl}-acetamide]
(+) |  |  |  | Fc1ccc(Nc2c(-c3ccccc3)nc3cnccn23)cc1F [compound 30, (3,4-Difluoro-phenyl)-(2-phenyl-imidazo[1,2-a]pyrazin-3-yl)-amine]
 | − | − | + | Clc1cccc(Nc2c(-c3ccccc3)nc3cnccn23)c1 [compound 35, (3-Chloro-phenyl)-(2-phenyl-imidazo[1,2-a]pyrazin-3-yl)-amine]
(+) |  |  |  | COc1cccc(-c2nc3c(C)nccn3c2Nc2cccc(Cl)c2)c1 [compound 48, (3-Chloro-phenyl)-[2-(3-methoxy-phenyl)-8-methyl-imidazo[1,2-a]pyrazin-3-yl]-amine]
 | − | − | − | Cc1nccn2c(Nc3ccc(F)c(F)c3)c(-c3ccccc3)nc12 [compound 45, (3,4-Difluoro-phenyl)-(8-methyl-2-phenyl-imidazo[1,2-a]pyrazin-3-yl)-amine]
(+) |  |  |  | COc1cccc(-c2nc3c(C)nccn3c2Nc2cccc(C)c2)c1 [compound 42, [2-(3-Methoxy-phenyl)-8-methyl-imidazo[1,2-a]pyrazin-3-yl]-m-tolyl-amine]
 | − | − | + | c1ccc(Nc2c(-c3ccccc3)nc3cnccn23)cc1 [compound 23, Phenyl-(2-phenyl-imidazo[1,2-a]pyrazin-3-yl)-amine]
(+) |  |  |  | Nc1ccc(-c2nc3cnccn3c2Nc2cccc(Cl)c2)cc1 [compound 10, [2-(4-Amino-phenyl)-imidazo[1,2-a]pyrazin-3-yl]-(3-chloro-phenyl)-amine]
(+) |  |  |  | CC(C)c1nc2cnccn2c1Nc1cccc(Cl)c1 [compound 12, (3-Chloro-phenyl)-(2-isopropyl-imidazo[1,2-a]pyrazin-3-yl)-amine]
 | − | − | − | Cc1cccc(Nc2c(-c3ccccc3)nc3c(C)nccn23)c1 [compound 43, (8-Methyl-2-phenyl-imidazo[1,2-a]pyrazin-3-yl)-m-tolyl-amine]
 | − | − | + | Cc1nccn2c(Nc3cccc(F)c3)c(-c3ccccc3)nc12 [compound 44, (3-Fluoro-phenyl)-(8-methyl-2-phenyl-imidazo[1,2-a]pyrazin-3-yl)-amine]
(+) |  |  |  | CC(=O)Nc1ccc(-c2nc3c(C)nccn3c2Nc2cccc(Cl)c2)cc1 [compound 33, N-{4-[3-(3-Chloro-phenylamino)-8-methyl-imidazo[1,2-a]pyrazin-2-yl]-phenyl}-acetamide]
(+) |  |  |  | Fc1cccc(Nc2c(-c3ccccc3)nc3cnccn23)c1 [compound 26, (3-Fluoro-phenyl)-(2-phenyl-imidazo[1,2-a]pyrazin-3-yl)-amine]
 | − | − | − | Clc1ccc(Nc2c(-c3ccccc3)nc3cnccn23)cc1 [compound 16, (4-Chloro-phenyl)-(2-phenyl-imidazo[1,2-a]pyrazin-3-yl)-amine]
 | − | − | + | Cc1nccn2c(Nc3cccc(Cl)c3)c(-c3ccccc3)nc12 [compound 3, (3-Chloro-phenyl)-(8-methyl-2-phenyl-imidazo[1,2-a]pyrazin-3-yl)-amine]
 | − | − | − | Cc1cccc(Nc2c(-c3ccccc3)nc3cnccn23)c1 [compound 34, (2-Phenyl-imidazo[1,2-a]pyrazin-3-yl)-m-tolyl-amine]
 | − | − | + | COc1cccc(-c2nc3cnccn3c2Nc2cccc(Cl)c2)c1 [compound 7, (3-Chloro-phenyl)-[2-(3-methoxy-phenyl)-imidazo[1,2-a]pyrazin-3-yl]-amine]
